Test systems include HCT-15 colon; UACC-257 melanoma; RXF 393 renal; A498 renal; T-47D breast; UACC-62 melanoma; NCI-H460 lung; RPMI-8226 leukemia.
Holding throughout (experiment): growth of human tumour cells (NCI), 48 h

Drawing on PubChem BioAssay (NCI), this text covers TGI for 16 molecules.

Structures are written as SMILES.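 Briefly, cells in 96-well plates were exposed to five compound concentrations for 48 h, and endpoints were estimated by linear interpolation. Definition used: TGI = concentration required for complete inhibition of growth.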

For `C=C1[C@@H]2CCC3[C@]4(C)C(CC[C@@]5(C)C(=O)O[C@H](O)[C@@H]45)[C@H](O)[C@]3(C2)[C@H]1OC1OC(CO)C(O)C(O)C1O` (some centres not stated), the TGI in the assay with HCT-15 colon, in the assay with UACC-257 melanoma, in the assay on RXF 393 renal, with A498 renal, in the assay with T-47D breast and with UACC-62 melanoma was above 50 µM in each case. The TGI in the assay on NCI-H460 lung and with RPMI-8226 leukemia was above 50 µM each time.
For `CC1=NN2C(=N)/C(=C/c3ccc(F)cc3)C(=O)N=C2S1`, the TGI with HCT-15 colon, in the assay with UACC-257 melanoma, with RXF 393 renal, in the assay with A498 renal, with T-47D breast and in the assay with UACC-62 melanoma was above 100 µM throughout. For the same molecule, the TGI with NCI-H460 lung and with RPMI-8226 leukemia was above 100 µM in each case.
As to `Cc1c(C(=O)NNc2ccccc2)n2c(=S)[nH]nc2c2ccccc12`, the TGI in the assay with HCT-15 colon, in the assay on UACC-257 melanoma, with RXF 393 renal, with A498 renal, in the assay on T-47D breast and in the assay on UACC-62 melanoma was above 100 µM each time. In addition, the TGI with NCI-H460 lung and with RPMI-8226 leukemia was above 100 µM each time.
`CC(C)=CCC[C@@H](C)C1=C(Nc2ccccc2F)C(O)=C(C)C(=O)C1=O`: the TGI is above 70.6 µM in the assay on HCT-15 colon; above 100 µM with UACC-257 melanoma; above 64.1 µM in the assay with RXF 393 renal; above 43.9 µM in the assay with A498 renal; 64.1 µM in the assay with T-47D breast; 22.6 µM in the assay with UACC-62 melanoma. Moreover, the TGI in the assay with NCI-H460 lung and in the assay on RPMI-8226 leukemia was above 100 µM each time.
`CC(C)=C/C(CC(O)(C(F)(F)F)C(F)(F)F)=N\O`: the TGI in the assay on HCT-15 colon, with UACC-257 melanoma, in the assay with RXF 393 renal, in the assay with A498 renal, in the assay with T-47D breast and in the assay on UACC-62 melanoma was above 100 µM each time. The TGI with NCI-H460 lung and with RPMI-8226 leukemia was above 100 µM throughout.
On to `COc1cc2c(cc1OCc1ccccc1)NC(=O)[C@@H]1CCCN1C2=O`, for which the TGI in the assay on HCT-15 colon, in the assay with UACC-257 melanoma, in the assay on RXF 393 renal, in the assay with A498 renal, in the assay on T-47D breast and in the assay with UACC-62 melanoma was above 100 µM throughout. Moreover, the TGI with NCI-H460 lung and in the assay with RPMI-8226 leukemia was above 100 µM each time.
With `O=C1c2cc3c(cc2CC12Cc1ccc4c(c1C2=O)CCC4)CCC3` (configuration not stated), the TGI with HCT-15 colon, in the assay with UACC-257 melanoma, in the assay with RXF 393 renal, in the assay with A498 renal, in the assay with T-47D breast and in the assay with NCI-H460 lung was above 100 µM throughout. The molecule also showed a TGI with RPMI-8226 leukemia above 100 µM.
Consider `CSc1ncc2c(n1)-c1ccccc1OC2NC1CC1` (configuration not stated), for which the TGI in the assay on HCT-15 colon was above 100 µM; in the assay with UACC-257 melanoma it was above 100 µM; in the assay on RXF 393 renal it was above 100 µM; in the assay with A498 renal, 28 µM; in the assay on T-47D breast it was 91.7 µM; with UACC-62 melanoma, above 100 µM. The TGI in the assay on NCI-H460 lung is above 100 µM; with RPMI-8226 leukemia, 96.9 µM.
For the molecule `CCC1([N+](=O)[O-])CN(N=O)C1`, the TGI in the assay with HCT-15 colon, with UACC-257 melanoma, in the assay on RXF 393 renal, with A498 renal, in the assay with T-47D breast and in the assay on UACC-62 melanoma was above 100 µM throughout. Further, the TGI with NCI-H460 lung and in the assay with RPMI-8226 leukemia was above 100 µM in each case.
On to `Cc1nc2c(=O)n(-c3ccccc3)c(=O)n(-c3ccccc3)c2o1`, for which the TGI in the assay with HCT-15 colon, in the assay on UACC-257 melanoma, in the assay on RXF 393 renal, in the assay with A498 renal, in the assay on T-47D breast and in the assay with UACC-62 melanoma was above 100 µM throughout. Moreover, the TGI in the assay on NCI-H460 lung and with RPMI-8226 leukemia was above 100 µM in each case.
Regarding `CSc1ccc(/C=C2\N=C(c3ccccc3)N(c3nc4cc(Cl)c(F)cc4s3)C2=O)cc1`, the TGI in the assay with HCT-15 colon was above 100 µM; with UACC-257 melanoma it was above 100 µM; in the assay on RXF 393 renal, 57.5 µM; with A498 renal it was above 100 µM; in the assay with T-47D breast, above 100 µM; in the assay with UACC-62 melanoma it was above 100 µM. Also, the TGI with NCI-H460 lung and in the assay with RPMI-8226 leukemia was above 100 µM in each case.
For the molecule `CC1(C)C=C(/C=C2/N(S(=O)(=O)C(F)(F)F)C(/C=C3/N(S(=O)(=O)C(F)(F)F)C(C)(C#N)CC3(C)C)=CC2(C)C)N=C1/C=C1/CC(C)(C)C(=O)N1` (configuration not stated), the TGI was 73.6 µM in the assay with HCT-15 colon; above 100 µM in the assay on UACC-257 melanoma; 81.3 µM in the assay on RXF 393 renal; above 100 µM in the assay with A498 renal; above 100 µM in the assay on T-47D breast; 69.1 µM with UACC-62 melanoma. For the same molecule, the TGI in the assay with NCI-H460 lung was above 100 µM; in the assay with RPMI-8226 leukemia, 23.4 µM.
As to `CSc1nc(=O)c2nc(-c3cccs3)c(-c3cccs3)nc2n1C`, the TGI in the assay on HCT-15 colon is above 100 µM; in the assay with UACC-257 melanoma it was above 100 µM; in the assay with RXF 393 renal, 59.6 µM; in the assay with A498 renal, above 100 µM; with T-47D breast, 80.4 µM; in the assay with UACC-62 melanoma, above 100 µM. Further, the TGI in the assay on NCI-H460 lung and in the assay on RPMI-8226 leukemia was above 100 µM in each case.
For `Clc1ccc(/C(=C/c2ccccc2)Cn2ccnc2)cc1`, the TGI with HCT-15 colon is above 100 µM; with UACC-257 melanoma, above 100 µM; in the assay with RXF 393 renal, 50.7 µM; in the assay with A498 renal, 77.7 µM; in the assay on T-47D breast it was above 100 µM; in the assay on UACC-62 melanoma it was above 100 µM. The TGI was above 100 µM in the assay on NCI-H460 lung and 73.6 µM with RPMI-8226 leukemia.
For `CC1=C(C)SC(=C2Sc3c(n(C)c(=O)n(C)c3=O)S2)S1`, the TGI with HCT-15 colon was above 100 µM; in the assay on UACC-257 melanoma, above 100 µM; with RXF 393 renal it was above 100 µM; with A498 renal, 79.4 µM; with T-47D breast, above 100 µM; in the assay with UACC-62 melanoma, above 100 µM. In addition, the TGI with NCI-H460 lung and in the assay on RPMI-8226 leukemia was above 100 µM in each case.
For `O=C1C=CC(=O)c2c(O)c(N3CCC[C@@H]3CO)c(Cl)c(O)c21`, the TGI in the assay on HCT-15 colon was determined as 3.35 µM; with UACC-257 melanoma it was 3.28 µM; in the assay on RXF 393 renal, 2.98 µM; in the assay on A498 renal, 6.96 µM; in the assay on T-47D breast it was 4.27 µM; in the assay with UACC-62 melanoma, 2.96 µM. For the same molecule, the values for the TGI with NCI-H460 lung and with RPMI-8226 leukemia were 3.52 µM and 1.69 µM, respectively.
